Measurements taken from patent publication US4179433A, “Angiotensin II antagonist peptides containing an alpha-aminooxyacid in the position-1” (Richter Gedeon Vegyeszeti Gyar Rt., priority 1977, dated 1979).

Tested on: narcoticized male cats
Assay: Decrease in arterial blood pressure after intravenous administration, under i.v. infusion of angiotensin II
Assay type: in vivo, cat
Conditions: single dose, angiotensin II infusion 0.5 μg/kg/min, average of 6 experiments
Procedure: The antagonistic activity of the compounds having the formula I was tested on narcoticized male cats. The blood pressure was measured on the cervical artery. The tests were performed by introducing a Hypertension (CIBA) infusion into a lateral femoral vane at a speed of 0.5 μg/kg/min. When the increase in blood pressure was stabilized, the aqueous, physiological or carrier-containing solutions of the test compounds and Saralasin were administered in a single dose, intravenously or subcutaneously, and the decrease in blood pressure was measured. In the Table I the decrease in the arterial blood pressure under the influence of an intravenous administration of the test compounds is illustrated. For comparison Saralasin is used. The data set forth in the Table 1 were obtained by calculating the average of the results of 6 experiments. The margins of error indicate the scatter of the main value.

`CNCC(=O)N[C@@H](CCCN=C(N)N)C(=O)N[C@H](C(=O)N[C@@H](Cc1ccc(O)cc1)C(=O)N[C@H](C(=O)N[C@@H](Cc1cnc[nH]1)C(=O)N1CCC[C@H]1C(=O)N[C@@H](C)C(=O)O)C(C)C)C(C)C` [Saralasin] was tested, and the “Decrease in blood pressure (mmHg) after administration of 10 μg/kg i.v. doses” value was -41±2.5 mmHg.
